Measured values reported in PMC4555095, “Inhibitory effects of magnolol and honokiol on human calcitonin aggregation” (Scientific Reports, 2015).

Target: T1, Human calcitonin (hCT) (Homo sapiens, UniProt P01258)
T1 construct: gene CALCA; mature 32-residue calcitonin peptide cut from the calcitonin precursor; disulfide Cys-1/Cys-7, C terminus amidated; no tag
T1 sequence (P01258 85-116 limits assumed): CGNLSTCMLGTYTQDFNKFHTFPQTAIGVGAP
Assay: isothermal titration calorimetry
Assay type: binding
Conditions: read-out: Kb

Kd [µM]	Structure (SMILES)
6.49	C=CCc1ccc(O)c(-c2ccc(O)c(CC=C)c2)c1 [honokiol]
2.62	C=CCc1ccc(O)c(-c2cc(CC=C)ccc2O)c1 [magnolol]
